Key:
PC-12 cells = test: MTT cytotoxicity assay in PC-12 cells; format: cell-based; conditions: for IC50: MTT assay for 48 h
Protocol: (§1) Cytotoxicity Assays: Cell viability was measured by using the MTT method (3-[4,5-dimethylthiazol-2-yl]-2,5-diphenyl tetrazolium bromide) as described previously (Wu, A. G. et al. Int J Mol Sci 2013, 14:22618-22641). Absorbance (OD) of cell samples was obtained by spectrophotometer at 570 nm. The percentage of cell viability was calculated by using the formula: cell viability (%)=cells numbertreated/cells numberDMSO control×100. All MTT data were calculated from three independent experiments.
as §1, with “experiments. Cell viability was also measured by flow cytometry using the Annexin V staining kit (BD Biosciences, San Jose, Calif., USA).” for “experiments.”
Cytotoxicity Assays and Flow Cytometry: Cell viability was measured by using the MTT method (3-[4,5-dimethylthiazol-2-yl]-2,5-diphenyl tetrazolium bromide) as described previously (Wu, A. G. et al. Int J Mol Sci 2013, 14:22618-22641). Absorbance (OD) of cell samples was obtained by spectrophotometer at 570 nm. The percentage of cell viability was calculated by using the formula: cell viability (%)=cells numbertreated/cells numberDMSO control×100. All MTT data were calculated from three independent experiments. Cell viability was also measured by flow cytometry using the Annexin V staining kit (BD Biosciences, San Jose, Calif., USA). In brief, PC-12 cells treated with hederagenin and α-hederin were analyzed by multiparametric flow cytometry using FITC-Annexin V and/or propidium iodide staining (BD Biosciences, San Jose, Calif., USA) by following manufacturer's instructions. Flow cytometry was then carried out using a FACSCalibur flow cytometer (BD Biosciences). […]

[1] = tested on: GFP-LC3 transfected PC-12 cells; test: GFP-LC3 autophagic puncta formation by fluorescence microscopy; format: cell-based; conditions: for percentage of cells with GFP-LC3 puncta formation with addition of 3-MA: 60 μM hederagenin or 18 μM α-hederin with 5 mM 3-MA for 24 h; for formation of GFP-LC3 puncta with AMPK inhibitor compound C (CC): 60 μM hederagenin or 18 μM α-hederin with 5 mM CC for 24 h; for formation of fluorescent LC3 II puncta: PC-12 cells, hederagenin 20-80 μM, α-hederin 6-24 μM, 4-24 h
Protocol: Firstly, cells were plated on top of coverslips inside a 6-well culture dish. After compound treatment, cells were fixed with 4% paraformaldehyde for 20 min. FluorSave™ mounting media (Calbiochem, San Diego, Calif., USA) was used to mount the coverslips with cells before subjected to fluorescence microscopic analysis. The number of GFP-positive cells, and cells with GFP-LC3 puncta formation were examined and counted under the Nikon ECLIPSE 80i microscope by using 40× of magnification. In order to standardize the quantitation, the percentage of cells with autophagy induction was defined by counting the number of cells with increased punctate GFP-LC3 fluorescence in GFP-positive cells. A minimum of 1000 GFP-positive cells from 3 randomly selected fields were scored.
Firstly, cells were plated on top of coverslips inside a 6-well culture dish. After compounds treatments, cells were fixed with 4% paraformaldehyde for 20 min. FluorSave™ mounting media (Calbiochem, San Diego, Calif., USA) was used to mount the coverslips with cells before subjected to fluorescence microscopic analysis. The number of GFP-positive cells, and cells with GFP-LC3 puncta formation was examined and counted under the Nikon ECLIPSE 80i microscope by using 40× of magnification. In order to standardize the quantitation, the percentage of cells with autophagy induction was defined by counting the number of cells with punctate GFP-LC3 fluorescence in GFP-positive cells. A minimum of 1000 GFP-positive cells from 3 randomly selected fields were scored.

LC3-II [2] = test: Western blot of LC3 conversion (LC3-II) in PC-12 cells; format: cell-based; conditions: for protein level of LC3-II with AMPK inhibitor compound C (CC): 60 μM hederagenin or 18 μM α-hederin with 5 μM CC; for protein level of LC3-II with addition of 3-MA: 60 μM hederagenin or 18 μM α-hederin with 5 mM 3-MA; for rate of LC3-II formation with lysosomal protease inhibitors (autophagic flux): 60 μM hederagenin or 18 μM α-hederin with E64d and pepstatin A (10 μg/mL), compared with compounds alone; for protein level of LC3-II: PC-12 cells, various durations and concentrations
p-p70S6K = test: Western blot of p70S6K phosphorylation (downstream target of mTOR); format: cell-based; conditions: hederagenin 0-80 μM, α-hederin 0-24 μM, 24 h
Source text: (§2) Protein extraction and Western blots: Cells were harvested by RIPA lysis buffer (Cell Signaling Technologies, Beverly, Mass., USA), and with the final protein concentrations measured by using Bradford reagent (Bio-Rad, Hercules, Calif., USA). After electrophoresis for protein band separation, proteins were transferred to the nitrocellulose membrane which was blocked with 5% non-fat dried milk immediately after protein transfer. Corresponding primary antibodies, followed by the addition of HRP-conjugated secondary antibodies, were incubated with the protein membrane with constant shaking. Visualization of protein band pattern was performed by using the ECL Western Blotting Detection Reagents (Invitrogen, Paisley, Scotland). Band intensities were quantified by using the software, ImageJ (ImageJ 1.46r; National Institutes of Health, Bethesda, Md., USA).

LC3-II [3] = test: Western blot of LC3-II in ATG7+/+ and ATG7−/− MEFs; format: cell-based, mouse; conditions: 24 h
Source text: as §2

[4] = tested on: EGFP-HTT 74 (mutant huntingtin); test: Mutant huntingtin (EGFP-HTT 74) clearance and inclusion formation in ATG7+/+ and ATG7−/− MEFs; format: cell-based, mouse; conditions: 24 h; for percentage of cells with fluorescence mutant huntingtin inclusion formation: ATG7−/− compared with ATG7+/+ MEFs after treatment; for inclusion clearance of overexpressed mutant huntingtin in ATG7+/+ MEFs: EGFP-HTT 74 transfected ATG7+/+ MEFs
Source text: as §2
Cells were then treated with either hederagenin or α-hederin for a further 24 h to determine the protein level of mutant huntingtin by Western blot analysis using an antibody against GFP (Ravikumar, B. et al., Nat Genet 2004, 36:585-595). On the other hand, ATG7 wild-type and ATG7-deficient MEF cells transfected with EGFP-HTT 74 were analyzed for the formation of huntingtin inclusion after 24 h of hederagenin or α-hederin treatment. Percentages of cells with cytoplasmic GFP-huntingtin (GFP-HTT74) inclusion formation were counted by the number of cells with GFP inclusions over the total number of GFP-positive cells in the same field under fluorescent microscopic analysis. More than 200 GFP-positive cells were scored for each treatment.

[5] = tested on: PC-12 cells treated with 0.5 mM MPTP; test: Rescue from MPTP-induced cell death in PC-12 cells (MTT, Annexin V flow cytometry); format: cell-based; conditions: cell density, MTT assay and flow cytometry
Protocol: Cytotoxicity Assays and Flow Cytometry: Cell viability was measured by using the MTT method (3-[4,5-dimethylthiazol-2-yl]-2,5-diphenyl tetrazolium bromide) as described previously (Wu, A. G. et al. Int J Mol Sci 2013, 14:22618-22641). Absorbance (OD) of cell samples was obtained by spectrophotometer at 570 nm. The percentage of cell viability was calculated by using the formula: cell viability (%)=cells numbertreated/cells numberDMSO control×100. All MTT data were calculated from three independent experiments. Cell viability was also measured by flow cytometry using the Annexin V staining kit (BD Biosciences, San Jose, Calif., USA). In brief, PC-12 cells treated with hederagenin and α-hederin were analyzed by multiparametric flow cytometry using FITC-Annexin V and/or propidium iodide staining (BD Biosciences, San Jose, Calif., USA) by following manufacturer's instructions. Flow cytometry was then carried out using a FACSCalibur flow cytometer (BD Biosciences). Data acquisition and analysis were performed with CellQuest (BD Biosciences).

SMILES	IC50 (PC-12 cells; Rattus norvegicus) [µM]	percentage of cells with GFP-LC3 puncta formation with addition of 3-MA [1]	formation of GFP-LC3 puncta with AMPK inhibitor compound C (CC) [1]	formation of fluorescent LC3 II puncta [1]	protein level of LC3-II with AMPK inhibitor compound C (CC) (LC3-II [2])	protein level of LC3-II with addition of 3-MA (LC3-II [2])	rate of LC3-II formation with lysosomal protease inhibitors (autophagic flux) (LC3-II [2])	protein level of LC3-II (LC3-II [2])	phosphorylation of p70S6K (p-p70S6K)	protein expression of LC3-II in ATG7+/+ MEFs (LC3-II [3])	percentage of cells with fluorescence mutant huntingtin inclusion formation [4]	inclusion clearance of overexpressed mutant huntingtin in ATG7+/+ MEFs [4]	rescue from MPTP-induced cell death [5]	IC50 (PC-12 cells) [µM]	cytotoxicity at most effective concentration (PC-12 cells; hederagenin 80 μM, α-hederin 24 μM)
CC1(C)CC[C@]2(C(=O)O)CC[C@]3(C)C(=CC[C@@H]4[C@@]5(C)CC[C@H](O)[C@@](C)(CO)[C@@H]5CC[C@]43C)[C@@H]2C1 [hederagenin]	> 100	decreases the rate of autophagy	significant reduction	increased formation of fluorescent LC3 II puncta	significant reduction in protein level of LC3-II	decreased protein level of LC3-II	significantly increase the rate of LC3-II formation	increase in the protein level of LC3-II via a dose- and time-dependent manner	reduced phosphorylation of p70S6K	significant increased protein expression of LC3-II	higher percentage of cells with fluorescence mutant huntingtin inclusion formation was found in ATG−/− MEFs	facilitate the inclusion clearance of overexpressed mutant huntingtin	rescue cells from MPTP-induced cell death	–	–
C[C@@H]1O[C@@H](O[C@H]2[C@H](O[C@H]3CC[C@@]4(C)[C@@H](CC[C@]5(C)[C@@H]4CC=C4[C@@H]6CC(C)(C)CC[C@]6(C(=O)O)CC[C@]45C)[C@]3(C)CO)OC[C@H](O)[C@@H]2O)[C@H](O)[C@H](O)[C@H]1O [α-hederin]	–	decreases the rate of autophagy	significant reduction	increased formation of fluorescent LC3 II puncta	significant reduction in protein level of LC3-II	decreased protein level of LC3-II	significantly increase the rate of LC3-II formation	increase in the protein level of LC3-II via a dose- and time-dependent manner	reduced phosphorylation of p70S6K	significant increased protein expression of LC3-II	higher percentage of cells with fluorescence mutant huntingtin inclusion formation was found in ATG−/− MEFs	facilitate the inclusion clearance of overexpressed mutant huntingtin	rescue cells from MPTP-induced cell death	26.5	lack of obvious cytotoxicity
